# Assays:
# dopamine receptor = assay: Inhibition of stereotype behaviour induced by apomorphine; assay type: in vivo, rat; conditions: for Inhibition of Stereo-Type Behaviour, active dose: S.C., rat, active doses (mg/kg); for Inhibition of Stereo-Type Behaviour, number of rats: at 50mg S.C.
# Protocol: (§1) 1. Compounds prepared in the Examples were tested for the following pharmacological activities in the rat:
# (c) Inhibition of stereotype behaviour induced by apomorphine.
# This is indicative of dopamine receptor blockade in the central nervous system.
# The method of Ernst A. M. (1967) Pyschopharmocologia (Berl.) 10 pp. 316-323 was followed.
# intragastric pressure = assay: Increase in intragastric pressure; assay type: in vivo, rat; conditions: conscious restrained rats with gastric fistula, 40 minutes after administration, active doses (mg/kg)
# Protocol: as §1
# (a) Increase in intragastric pressure
# Intragastric pressure changes were recorded from previously starved conscious and restrained rats using a saline filled catheter inserted into the lumen of the stomach via a permanent gastric fistula. The catheter was connected to a physiological pressure transducer and pressure changes recorded on a hot wire pen recorder. In each animal a pre-dose period of 40 minutes was allowed to obtain a measure of spontaneous activity. An index of activity was obtained by measuring the average height of pressure waves during 10 minute periods. Values for 4 such periods were obtained during assessment of spontaneous activity and for the 40 minute period after the administration of the Compounds. Student "t" test was applied to the difference in average values obtained for spontaneous and post Compound activity.
# [1] = system: emetic response to apomorphine hydrochloride; assay: Abolition of the emetic response to apomorphine hydrochloride; assay type: in vivo; conditions: Canis lupus familiaris, sc; S.C.; dog; apomorphine hydrochloride 0.1 mg/kg subcutaneously; active doses (mg/kg); read-out: Anti-Emetic ED 50
# Protocol: 2. Compounds were also tested for abolition of the emetic response to apomorphine hydrochloride (0.1 mg/kg subcutaneously) in the dog
# [2] = system: apomorphine induced delay in gastric emptying; assay: Increase in gastric emptying - reversal of apomorphine induced delay in gastric emptying of a test meal; assay type: in vivo, rat; conditions: S.C.; rats with chronic gastric fistula; Apomorphine HCl 5 mg/kg subcutaneously 15 minutes prior; active doses (mg/kg)
# Protocol: as §1
# (b) Increase in gastric emptying-reversal of apomorphine induced delay in gastric emptying of a test meal.
# Rats equipped with chronic gastric fistula were used and it was through this that 5 ml of a test meal (5 ml phosphate buffer at pH 9) was administered and recovered. The % recovery of the standard meal after remaining in the stomach for 10 minutes was taken as an index of gastric emptying. Delay in gastric emptying was induced by the administration of Apomorphine HCl (5 mg/kg subcutaneously) and was given 15 minutes prior to the administration of the Compound. The % recoveries of the test meal was determined at 15-25 and 45-55 minutes post dosing with the Compound and compared with vehicle only dosed animals set up simultaneously. Six animals were used for each group.
smiles,measurement,setting,value
"COc1cc(N)c(Cl)cc1C(=O)NC1CCN2CCCCC2C1 (stereo not drawn) [Example 2, 4-Amino-5-chloro-2-methoxy-N-(2-quinolizidinyl)-benzamide]","Inhibition of Stereo-Type Behaviour, active dose",dopamine receptor,15 mg
same,"Increase in Intra-Gastric Pressure, active dose",intragastric pressure; P.O.,50 mg
same,"Increase in Intra-Gastric Pressure, active dose",intragastric pressure; S.C.,2.5 mg
same,ED50,[1],0.7 mg/kg
same,"Increase in Gastric Emptying, active dose",[2],25 mg
"COc1cc(N)c(Cl)cc1C(=O)NC1CCN2CCCC2C1 (stereo not drawn) [Example 4, 4-Amino-5-chloro-2-methoxy-N-(7-octahydro-indolizinyl)-benzamide]","Inhibition of Stereo-Type Behaviour, active dose",dopamine receptor,50 mg
same,"Inhibition of Stereo-Type Behaviour, number of rats",dopamine receptor,4 out of 7 rats
same,"Increase in Intra-Gastric Pressure, active dose",intragastric pressure; S.C.,5 mg
same,ED50,[1],< 2 mg/kg
same,"Increase in Gastric Emptying, active dose",[2],50 mg
"COc1cc(N)c(Cl)cc1C(=O)NC1CCC2CCCCN2C1 (stereo not drawn) [Example 6, 4-Amino-5-chloro-2-methoxy-N-(3-quinolizidinyl)-benzamide]","Inhibition of Stereo-Type Behaviour, active dose",dopamine receptor,50 mg
same,"Inhibition of Stereo-Type Behaviour, number of rats",dopamine receptor,3 out of 7 rats
same,ED50,[1],1.4 mg/kg
"COc1cc(N)c(Cl)cc1C(=O)NC1CCCN2CCCCC12 (stereo not drawn) [Example 8b, 4-Amino-5-chloro-2-methoxy-N-(1-quinolizidinyl)-benzamide]","Inhibition of Stereo-Type Behaviour, active dose",dopamine receptor,50 mg
same,ED50,[1],< 2 mg/kg
"COc1cc(N)c(Cl)cc1C(=O)NC1CCN2CCc3ccccc3C2C1 (stereo not drawn) [Example 10, 4-Amino-5-chloro-N-[2-(2H-benzo[a]-quinolizine-1,3,4,6,7,11b-hexahydro)]-2-methoxy-benzamide]","Increase in Gastric Emptying, active dose",[2],50 mg
COc1cc(N)c(Cl)cc1C(=O)NN1CCN2CCCCC2C1 (stereo not drawn) [Example 12],ED50,[1],2 mg/kg
"COc1cc(N)c(Cl)cc1C(=O)NC1CC2CCCCN2C1 (stereo not drawn) [Example 14, 4-Amino-5-chloro-2-methoxy-N-(2-octahydroindolizinyl)-benzamide]","Inhibition of Stereo-Type Behaviour, active dose",dopamine receptor,50 mg
same,ED50,[1],< 2 mg/kg
same,"Increase in Gastric Emptying, active dose",[2],50 mg
"COc1cc(N)c(Cl)cc1C(=O)NC1CCN2C(C)CCCC2C1 (stereo not drawn) [Example 16, 4-Amino-5-chloro-2-methoxy-N-(6-methyl-2-quinolizidinyl)-benzamide]","Increase in Intra-Gastric Pressure, active dose",intragastric pressure; S.C.,1 mg
